The nature of data set [1]: Storage of reconstituted Peptide A solution. It counts as physicochemical. Here is the method:
(§1) Peptide A was provided as the acetate salt, 20 mg of lyophilized powder per vial for injection. The powder was reconstituted in saline to a concentration ranging from 4-20 mg/mL based upon the target dose and volume for each subject. Peptide A was supplied in colorless glass vials (Ph. Eur. hydrolytic class I) fitted with rubber stopper (Ph. Eur. type I).
Peptide A vials (20 mg/vial) were stored at 2-8° C. (36-46° F.) or −20±5° C. (−13 to 5° F.) protected from light at the study site, separated from other drugs. The reconstituted Peptide A solution can be stored for up to 12 hours in a refrigerator at 2-8° C. (36-46° F.). Syringes with Peptide A drawn from the vial can be stored for up to 4 hours at 20-25° C. (68-77° F.) protected from light. Any unused portion was discarded.

Data set [2] has as its system basal cell carcinoma (BCC) lesion. The data set can be described thus: Clinical study: intradermal injection of Peptide A into basal cell carcinoma lesions, with TRAEs, withdrawals and necrosis recorded. It counts as in vivo, human. Here is the method: This study involved human adults ≥18 years of age with clinically suspected BCC with at least 1 (and up to 5) eligible lesion(s) suitable for biopsy and excision. The size of the lesion(s) were ≥0.5 cm and ≤2 cm in longest diameter prior to punch biopsy or ≥1 cm and ≤2 cm in longest diameter prior to shave biopsy. Histological diagnosis of nodular, micronodular, or superficial BCC, as confirmed by punch or shave biopsy, was performed within 90 days of treatment.
as §1
Peptide A (acetate salt) was administered via intradermal injection into a single target lesion (between ≥0.5 cm and ≤2 cm in longest diameter) using the 1-mL syringe and 30-gauge 0.5-inch needle. The subjects were positioned in a way so that the target lesion lies flat, to avoid any dependent areas that may be susceptible to leakage of the pharmaceutical composition. Subsequent injections for the same lesion were given in remaining nonnecrotic areas of the lesion, as assessed prior to treatment. […]
Cohort 2 was assigned a regimen of 8 mg of Peptide A for each treatment day (with no partitioned administration on any day).
[…] The total 500 μL (8 mg) dosage volume is divided into 2 injections given at least 15 minutes and no more than 30 minutes apart, with 30% (150 μL) administered in the first injection and the remaining 70% (350 μL) with the second injection.
A radial administration method was also used for Cohorts 4 and 5. The formulation with Peptide A is injected intradermally for all injections and subcutaneous injection should be avoided. It is important to ensure adequate and even distribution of Peptide A across the entire base of the lesion. To accomplish adequate and even distribution of Peptide A across the entire lesion: The first 150 μL is injected as centrally as possible such that Peptide A can distribute radially outward; and the second (350 μL) portion is injected in a clockface fashion (i.e., at 12, 3, 6, 9 o'clock as shown in FIG. 1) as needed to ensure uniform distribution into the periphery of the lesion. The needle is inserted at a 10- to 20-degree angle for a flat lesion, or at an increased angle (i.e., greater than 20-degree) for a raised lesion.

Where a SMILES comes first, the peptide text is derived from it. [ ]: non-standard residue; d: D form. Dip = N[C@H](C(=O)O)C(c1ccccc1)c1ccccc1

Regarding `NCCCC[C@H](NC(=O)[C@@H](NC(=O)[C@H](Cc1c[nH]c2ccccc12)NC(=O)[C@H](CCCCN)NC(=O)[C@H](CCCCN)NC(=O)[C@H](Cc1c[nH]c2ccccc12)NC(=O)[C@H](Cc1c[nH]c2ccccc12)NC(=O)[C@H](CCCCN)NC(=O)[C@@H](N)CCCCN)C(c1ccccc1)c1ccccc1)C(N)=O` [Peptide A, KKWWKKWDipK-NH2] (H-KKWWKKW[Dip]K-NH2), the “Storage time of syringes with Peptide A drawn from the vial” value in data set [1] (20-25° C., protected from light) is reported as “up to 4 hours”. Further, the “Storage time of reconstituted Peptide A solution” value in data set [1] (reconstituted in saline, refrigerator at 2-8° C.) is on record as “up to 12 hours”. Also, in data set [2] (Cohorts 1 and 2, 4 mg then 8 mg or 8 mg daily, no partitioned administration), the “Subjects experiencing TRAEs of burning and pain at the injection site” value is on record as “Several subjects”. Besides, the “Subjects withdrawn from treatment due to TRAEs” value in data set [2] (Cohorts 1 and 2, no partitioned administration) is recorded as “Two subjects withdrew”. Also, the “Change in TRAEs” value in data set [2] (Cohorts 4 and 5, partitioned (30%/70%, 15-30 min apart) and radial administration, 8 mg in 500 μL) was “marked decrease”. For the same molecule, the “Withdrawal from study treatment due to TRAEs of burning or pain at the injection site” value in data set [2] (Cohorts 4 and 5 and expansion cohorts (10, 10, 26, 27 subjects enrolled), partitioned and radial administration, 8 mg) is on record as “No subjects have withdrawn from study”. The “Treatment status after TRAE” value is listed as “Discontinued” in data set [2] (Subject 3, Cohort 1, W1D2, no partitioned administration, subject withdrawn from treatment) and “Discontinued” in data set [2] (Subject 8, Cohort 2, W1D2, no partitioned administration, subject withdrew from treatment). In data set [2] (Subject 5, Cohort 1, W1D3 after 4 mg W1D1 and 8 mg W1D2, no partitioned administration, no injection given), the Lesion necrosis status entry is recorded as “Complete”. Moreover, in data set [2] (Subject 8, Cohort 2, 8 mg on W1D1, no partitioned administration), the “TRAEs (pain severity)” value is recorded as “experiencing moderate”. In addition, the “Duration of pain post-treatment” value in data set [2] (Subject 8, Cohort 2, 8 mg, no partitioned administration) is on record as “about 3-4 hours post-”. In addition, in data set [2] (Subject 9, Cohort 2, after the W1D2 treatment (8 mg), no partitioned administration, subject continued treatment), the TRAEs reported entry is “injection-site burning”.
